The source of these data is patent US7704995B2 (Exelixis, Inc., priority 2003, dated 2010).

The structures appear in SMILES notation.

Usually IC50 stands for the concentration that gives 50% inhibition.

The assay addresses T1, Chk1 (Homo sapiens, UniProt O14757).
T1 construct: purchased Upstate Biotechnology
T1 sequence (O14757 1-476): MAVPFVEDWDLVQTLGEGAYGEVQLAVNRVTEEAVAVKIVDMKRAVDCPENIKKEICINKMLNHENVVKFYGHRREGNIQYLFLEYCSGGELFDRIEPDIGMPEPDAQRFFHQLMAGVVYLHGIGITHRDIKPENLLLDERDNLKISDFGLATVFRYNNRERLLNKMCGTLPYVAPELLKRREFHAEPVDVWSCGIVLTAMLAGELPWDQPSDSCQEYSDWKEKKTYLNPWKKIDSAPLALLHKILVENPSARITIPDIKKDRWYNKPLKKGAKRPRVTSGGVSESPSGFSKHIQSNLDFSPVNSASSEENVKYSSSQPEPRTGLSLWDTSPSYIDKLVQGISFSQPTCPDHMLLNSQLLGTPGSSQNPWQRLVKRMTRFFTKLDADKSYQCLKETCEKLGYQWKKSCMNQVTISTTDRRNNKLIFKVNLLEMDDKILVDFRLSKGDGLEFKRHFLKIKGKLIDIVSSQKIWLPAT
Kind of assay: Chk1 kinase assay: incorporation of γ-33P ATP into immobilized myelin basic protein. Format: biochemical. The settings on record: read-out: Chk1 IC50. Summed up: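 Enzyme activity is measured as γ-33P transfer from ATP onto immobilized MBP over 1 h at room temperature, with Chk1 at 10 nM/10 μM unlabeled ATP and Chk2 at 20 nM/30 μM unlabeled ATP. Compounds are tested in 1% DMSO.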
Take `CNC(=O)c1nc(-c2cccc(C(=O)NCC3CCCC3)c2)cnc1N` [Example 253, 3-amino-6-(3-{[(cyclopentylmethyl)amino]carbonyl}phenyl)-N-methylpyrazine-2-carboxamide]: the IC50 is 50 to 1000 nM.
Take `CNC(=O)c1nc(-c2cccc(C(=O)NCc3cc(OC)cc(OC)c3)c2)cnc1N` [Example 254, 3-amino-6-{3-[({[3,5-bis(methyloxy)phenyl]methyl}amino)carbonyl]phenyl}-N-methylpyrazine-2-carboxamide]: the concentration for half-maximal inhibition (IC50) lay in the range of 50 to 1000 nM.
On to `CNC(=O)c1nc(-c2cccc(C(=O)NCc3ccc(S(C)(=O)=O)cc3)c2)cnc1N` [Example 255, 3-amino-N-methyl-6-{3-[({[4-(methylsulfonyl)phenyl]methyl}amino)carbonyl]phenyl}pyrazine-2-carboxamide], for which the IC50 lay in the range of 50 to 1000 nM.
Turning to `CNC(=O)c1nc(-c2cccc(C(=O)NCc3cc(Br)ccc3F)c2)cnc1N` [Example 256, 3-amino-6-[3-({[(5-bromo-2-fluorophenyl)methyl]amino}carbonyl)phenyl]-N-methylpyrazine-2-carboxamide], the concentration for half-maximal inhibition (IC50) lay within 50 to 1000 nM.
Under `CNC(=O)c1nc(-c2cccc(C(=O)NCc3ccc(F)c(Br)c3)c2)cnc1N` [Example 257, 3-amino-6-[3-({[(3-bromo-4-fluorophenyl)methyl]amino}carbonyl)phenyl]-N-methylpyrazine-2-carboxamide] stands 50 to 1000 nM.
Take `CNC(=O)c1nc(-c2cccc(C(=O)NCc3c(OC)cc(OC)cc3OC)c2)cnc1N` [Example 258, 3-amino-N-methyl-6-{3-[({[2,4,6-tris(methyloxy)phenyl]methyl}amino)carbonyl]phenyl}pyrazine-2-carboxamide]: the IC50 is 50 to 1000 nM.
As to `CNC(=O)c1nc(-c2cccc(C(=O)NCc3cccc(C)c3)c2)cnc1N` [Example 259, 3-amino-N-methyl-6-[3-({[(3-methylphenyl)methyl]amino}carbonyl)phenyl]pyrazine-2-carboxamide], the IC50 is 50 to 1000 nM.
Consider `CNC(=O)c1nc(-c2cccc(C(=O)NCc3ccc(Br)cc3F)c2)cnc1N` [Example 260, 3-amino-6-[3-({[(4-bromo-2-fluorophenyl)methyl]amino}carbonyl)phenyl]-N-methylpyrazine-2-carboxamide], for which the IC50 lay within 50 to 1000 nM.
For the compound `CNC(=O)c1nc(-c2cccc(C(=O)NCc3cc(C)ccc3C)c2)cnc1N` [Example 261, 3-amino-6-[3-({[(2,5-dimethylphenyl)methyl]amino}carbonyl)phenyl]-N-methylpyrazine-2-carboxamide], the IC50 fell in the range of 50 to 1000 nM.
Under `CNC(=O)c1nc(-c2cccc(C(=O)NCc3cc(C(F)(F)F)cc(C(F)(F)F)c3)c2)cnc1N` [Example 262, 3-amino-6-{3-[({[3,5-bis(trifluoromethyl)phenyl]methyl}amino)carbonyl]phenyl}-N-methylpyrazine-2-carboxamide] stands 50 to 1000 nM.
In the case of `CNC(=O)c1nc(-c2cccc(C(=O)NCC(c3ccccc3)c3ccccc3)c2)cnc1N` [Example 263, 3-amino-6-(3-{[(2,2-diphenylethyl)amino]carbonyl}phenyl)-N-methylpyrazine-2-carboxamide] it was 50 to 1000 nM; in that of `CNC(=O)c1nc(-c2ccsc2)cnc1N` [Example 264, 3-amino-N-methyl-6-(3-thienyl)pyrazine-2-carboxamide], 50 to 1000 nM; in that of `CNC(=O)c1nc(-c2cccc(S(=O)(=O)NCc3ccccc3)c2)cnc1N` [Example 265, 3-amino-N-methyl-6-(3-{[(phenylmethyl)amino]sulfonyl}phenyl)pyrazine-2-carboxamide], 1000 to 10000 nM.
Under `CNC(=O)c1nc(-c2cnc(N)c(C(=O)NC)n2)cnc1N` [Example 266, 5,5′-diamino-N,N′-dimethyl-2,2′-bipyrazine-6,6′-dicarboxamide] stands no less than 10000 nM.
As for `CNC(=O)c1nc(-c2ccc3[nH]ccc3c2)cnc1N` [Example 267, 3-amino-6-(1H-indol-5-yl)-N-methylpyrazine-2-carboxamide], the IC50 fell in the range of 50 to 1000 nM.
Under `CNC(=O)c1nc(-c2cccs2)cnc1N` [Example 268, 3-amino-N-methyl-6-(2-thienyl)pyrazine-2-carboxamide] stands 50 to 1000 nM; under `CNC(=O)c1nc(-c2ccncc2)cnc1N` [Example 269, 3-amino-N-methyl-6-pyridin-4-ylpyrazine-2-carboxamide], 1000 to 10000 nM.
As for `Nc1ncc(-c2cccc(C(=O)NCc3ccccc3)c2)nc1C(=O)NC1CC1` [Example 270, 3-amino-N-cyclopropyl-6-(3-{[(phenylmethyl)amino]carbonyl}phenyl)pyrazine-2-carboxamide], the IC50 lay in the range of 1000 to 10000 nM.
For `Nc1ncc(-c2cccc(C(=O)NCc3c(F)cccc3Cl)c2)nc1C(=O)NC1CC1` [Example 271, 3-amino-6-[3-({[(2-chloro-6-fluorophenyl)methyl]amino}carbonyl)phenyl]-N-cyclopropylpyrazine-2-carboxamide], the IC50 is no less than 10000 nM.
Take `CCNC(=O)c1nc(-c2cccc(C(=O)NCc3ccccc3)c2)cnc1N` [Example 272, 3-amino-N-ethyl-6-(3-{[(phenylmethyl)amino]carbonyl}phenyl)pyrazine-2-carboxamide]: the concentration for half-maximal inhibition (IC50) lay within 1000 to 10000 nM.
`CCNC(=O)c1nc(-c2cccc(C(=O)NCc3c(F)cccc3Cl)c2)cnc1N` [Example 273, 3-amino-6-[3-({[(2-chloro-6-fluorophenyl)methyl]amino}carbonyl)phenyl]-N-ethylpyrazine-2-carboxamide]: the concentration for half-maximal inhibition (IC50) was 1000 to 10000 nM.
Regarding `CNC(=O)c1nc(-c2cccc(C(=O)NCc3cccc(Cl)c3Cl)c2)cnc1N` [Example 274, 3-amino-6-[3-({[(2,3-dichlorophenyl)methyl]amino}carbonyl)phenyl]-N-methylpyrazine-2-carboxamide], the IC50 is 50 to 1000 nM.
For the compound `CNC(=O)c1nc(-c2cccc(C(=O)NCc3ccc(Cl)cc3F)c2)cnc1N` [Example 275, 3-amino-6-[3-({[(4-chloro-2-fluorophenyl)methyl]amino}carbonyl)phenyl]-N-methylpyrazine-2-carboxamide], the half-maximal inhibitory concentration (IC50) is less than 50 nM.
Under `CNC(=O)c1nc(-c2cccc(C(=O)NCc3cc(Cl)cc(Cl)c3)c2)cnc1N` [Example 276, 3-amino-6-[3-({[(3,5-dichlorophenyl)methyl]amino}carbonyl)phenyl]-N-methylpyrazine-2-carboxamide] stands 50 to 1000 nM; under `CNC(=O)c1nc(-c2cccc(C(=O)NCc3cc(Cl)ccc3F)c2)cnc1N` [Example 277, 3-amino-6-[3-({[(5-chloro-2-fluorophenyl)methyl]amino}carbonyl)phenyl]-N-methylpyrazine-2-carboxamide], 50 to 1000 nM.
In the case of `CNC(=O)c1nc(-c2cccc(C(=O)NC3CC3)c2)cnc1N` [Example 278, 3-amino-6-{3-[(cyclopropylamino)carbonyl]phenyl}-N-methylpyrazine-2-carboxamide] it was 1000 to 10000 nM.
With `CNC(=O)c1nc(-c2cccc(C(=O)NCc3ccc(Cl)c(Cl)c3)c2)cnc1N` [Example 279, 3-amino-6-[3-({[(3,4-dichlorophenyl)methyl]amino}carbonyl)phenyl]-N-methylpyrazine-2-carboxamide], the IC50 is 50 to 1000 nM.
On to `CNC(=O)c1nc(-c2cccc(C(=O)NCc3ccccc3-c3ccc(F)cc3)c2)cnc1N` [Example 280, 3-amino-6-[3-({[(4′-fluorobiphenyl-2-yl)methyl]amino}carbonyl)phenyl]-N-methylpyrazine-2-carboxamide], for which the IC50 lay within 50 to 1000 nM.
In the case of `CNC(=O)c1nc(-c2cccc(C(=O)NCc3ccc(F)c(F)c3F)c2)cnc1N` [Example 281, 3-amino-N-methyl-6-[3-({[(2,3,4-trifluorophenyl)methyl]amino}carbonyl)phenyl]pyrazine-2-carboxamide], the IC50 lay within 50 to 1000 nM.
As for `CNC(=O)c1nc(-c2cccc(C(=O)NCc3c(F)ccc(Cl)c3F)c2)cnc1N` [Example 282, 3-amino-6-[3-({[(3-chloro-2,6-difluorophenyl)methyl]amino}carbonyl)phenyl]-N-methylpyrazine-2-carboxamide], the IC50 lay in the range of 50 to 1000 nM.
On to `CNC(=O)c1nc(-c2cccc(C(=O)NC3c4ccccc4-c4ccccc43)c2)cnc1N` [Example 284, 3-amino-6-{3-[(9H-fluoren-9-ylamino)carbonyl]phenyl}-N-methylpyrazine-2-carboxamide], for which the IC50 was no less than 10000 nM.
On to `CNC(=O)c1nc(-c2cccc(C(=O)NCc3ccccc3C)c2)cnc1N` [Example 285, 3-amino-N-methyl-6-[3-({[(2-methylphenyl)methyl]amino}carbonyl)phenyl]pyrazine-2-carboxamide], for which the IC50 is 50 to 1000 nM.
With `CNC(=O)c1nc(-c2cccc(C(=O)NCc3ccc(C)c(C)c3)c2)cnc1N` [Example 286, 3-amino-6-[3-({[(3,4-dimethylphenyl)methyl]amino}carbonyl)phenyl]-N-methylpyrazine-2-carboxamide], the IC50 was 50 to 1000 nM.
For `CNC(=O)c1nc(-c2cccc(C(=O)NCc3cc(F)ccc3C)c2)cnc1N` [Example 287, 3-amino-6-[3-({[(5-fluoro-2-methylphenyl)methyl]amino}carbonyl)phenyl]-N-methylpyrazine-2-carboxamide], the IC50 was in the range of 50 to 1000 nM.
